Patent publication US8148391B2 (Cephalon, Inc., priority 2006, dated 2012)
Where two headings read alike, the source gives them in different places.

Experiments:
[1] = molecular target: T1, baculovirus-expressed ALK (Homo sapiens, UniProt Q9UM73); assay: ALK Kinase Assay (ELISA-type, time-resolved fluorescence); assay type: biochemical
T1 construct: host or cells: baculovirus expression system
How it was run: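 Wells were coated with phospholipase C-γ at 10 μg/mL in Tris-buffered saline. Adding 30 ng/ml enzyme started the reaction, which ran at 37° C for 15 minutes before Eu-N1 PT66 antibody detection. Percent inhibition versus log10 concentration gave IC50 by variable-slope fit.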

[2] = molecular target: T2, c-Met (cytoplasmic domain) (Homo sapiens, UniProt P08581); assay: c-Met Kinase Assay (same methods as for ALK, with modifications); assay type: biochemical
T2 construct: 10 ng/mL c-Met (cytoplasmic domain, Invitrogen Corporation #PV3143); purchased Invitrogen Corporation PV3143
T2 sequence (P08581 956-1390 limits assumed): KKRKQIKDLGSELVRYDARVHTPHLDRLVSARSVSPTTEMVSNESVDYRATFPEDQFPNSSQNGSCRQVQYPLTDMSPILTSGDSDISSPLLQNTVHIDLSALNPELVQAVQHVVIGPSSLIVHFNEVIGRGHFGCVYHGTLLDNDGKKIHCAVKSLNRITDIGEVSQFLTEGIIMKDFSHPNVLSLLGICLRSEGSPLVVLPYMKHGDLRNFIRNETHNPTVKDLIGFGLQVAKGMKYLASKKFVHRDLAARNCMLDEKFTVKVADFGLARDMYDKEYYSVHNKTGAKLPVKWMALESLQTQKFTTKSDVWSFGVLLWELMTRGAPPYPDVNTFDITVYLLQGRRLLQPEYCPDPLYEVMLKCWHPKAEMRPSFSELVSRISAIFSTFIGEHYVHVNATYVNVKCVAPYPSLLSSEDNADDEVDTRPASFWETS
How it was run: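 IC50 values were fitted by variable-slope sigmoidal regression of percent inhibition against log compound concentration. Phosphorylation was read with Eu-N1 PT66 antibody after a 15 min, 37 °C reaction. The reaction was initiated with 10 ng/mL c-Met cytoplasmic domain on wells coated with 10 μg/mL PLC-γ in TBS.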

[3] = ALK kinase inhibition, 1 μM ATP, read-out: ALK Activity
[4] = c-Met kinase inhibition, 1 μM ATP, read-out: cMet Activity
[5] = 1 μM ATP (Km level), 30 ng/ml ALK, 37° C., 15 minutes, read-out: ALK Activity (ALK kinase inhibition, IC50 class)
[6] = 1 μM ATP (Km level), 10 ng/mL c-Met, read-out: cMet Activity (c-Met kinase inhibition, IC50 class)
[7] = ALK kinase inhibition, 1 μM ATP (Km level), read-out: ALK Activity
[8] = c-Met kinase inhibition, 1 μM ATP (Km level), read-out: cMet Activity
[9] = 1 μM ATP (Km level), read-out: ALK Activity (ALK Kinase Inhibition, IC50)
[10] = 1 μM ATP (Km level), read-out: cMet Activity (c-Met Kinase Inhibition, IC50)

T1 sequence (Q9UM73 19-1620): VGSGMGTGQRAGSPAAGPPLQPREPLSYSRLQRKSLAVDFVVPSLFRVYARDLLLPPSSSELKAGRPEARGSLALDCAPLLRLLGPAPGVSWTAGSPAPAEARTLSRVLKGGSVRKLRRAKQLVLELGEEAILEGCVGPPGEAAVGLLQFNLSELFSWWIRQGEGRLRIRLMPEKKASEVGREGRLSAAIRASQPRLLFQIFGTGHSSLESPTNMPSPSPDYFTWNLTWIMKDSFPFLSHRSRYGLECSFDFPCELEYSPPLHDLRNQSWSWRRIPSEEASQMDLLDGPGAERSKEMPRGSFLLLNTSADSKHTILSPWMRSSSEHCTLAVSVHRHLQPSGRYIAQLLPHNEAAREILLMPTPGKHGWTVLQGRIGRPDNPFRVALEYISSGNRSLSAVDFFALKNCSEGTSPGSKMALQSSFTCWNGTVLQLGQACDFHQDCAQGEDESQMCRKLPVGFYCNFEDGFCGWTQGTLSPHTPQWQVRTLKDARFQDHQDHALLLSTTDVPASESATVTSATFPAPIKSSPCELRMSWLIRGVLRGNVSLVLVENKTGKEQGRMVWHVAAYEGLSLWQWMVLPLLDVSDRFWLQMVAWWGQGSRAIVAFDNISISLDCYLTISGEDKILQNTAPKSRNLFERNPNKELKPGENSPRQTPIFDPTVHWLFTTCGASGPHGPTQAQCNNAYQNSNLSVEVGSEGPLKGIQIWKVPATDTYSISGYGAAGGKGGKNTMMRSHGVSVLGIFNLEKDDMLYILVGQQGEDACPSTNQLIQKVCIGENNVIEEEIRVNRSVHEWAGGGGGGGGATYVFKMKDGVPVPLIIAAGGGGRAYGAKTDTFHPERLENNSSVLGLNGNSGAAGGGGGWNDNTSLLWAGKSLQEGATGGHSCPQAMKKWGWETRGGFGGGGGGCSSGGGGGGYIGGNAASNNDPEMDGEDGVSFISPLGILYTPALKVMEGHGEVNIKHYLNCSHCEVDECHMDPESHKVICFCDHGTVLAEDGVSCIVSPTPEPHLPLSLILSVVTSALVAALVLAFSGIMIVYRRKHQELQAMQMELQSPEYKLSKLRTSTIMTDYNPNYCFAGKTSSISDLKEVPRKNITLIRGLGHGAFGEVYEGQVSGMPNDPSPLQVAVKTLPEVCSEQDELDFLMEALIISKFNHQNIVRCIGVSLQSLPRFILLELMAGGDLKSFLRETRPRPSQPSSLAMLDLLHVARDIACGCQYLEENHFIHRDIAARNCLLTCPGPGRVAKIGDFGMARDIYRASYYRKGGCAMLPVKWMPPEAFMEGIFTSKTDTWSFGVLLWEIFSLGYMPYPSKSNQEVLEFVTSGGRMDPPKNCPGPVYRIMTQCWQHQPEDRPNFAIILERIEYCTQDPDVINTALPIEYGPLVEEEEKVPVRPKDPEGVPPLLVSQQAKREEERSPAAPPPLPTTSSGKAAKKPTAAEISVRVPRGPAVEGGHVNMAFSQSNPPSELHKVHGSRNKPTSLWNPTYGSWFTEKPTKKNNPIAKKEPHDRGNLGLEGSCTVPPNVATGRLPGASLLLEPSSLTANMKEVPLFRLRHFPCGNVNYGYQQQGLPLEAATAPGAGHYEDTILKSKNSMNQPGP

For `COc1cc2c(cc1Nc1ncc(C(F)(F)F)c(Nc3ccc(N4CCOCC4)cc3OC)n1)CCOC(=O)N2C` [Example 1514, 3-Methoxy-2-[4-(2-methoxy-4-morpholin-4-yl-phenylamino)-5-trifluoromethyl-pyrimidin-2-ylamino]-5-methyl-8,9-dihydro-5H-7-oxa-5-aza-benzocyclohepten-6-one], the IC50 [1, 3] was < 0.1 µM and the IC50 [2, 4] was > 10 µM.
`CCNC(=O)c1cccc(F)c1Nc1nc(Nc2ccc3c(c2)CCN(CC(=O)N(C)C)CC3)ncc1Cl` [Example 1367, 2-[5-Chloro-2-(3-dimethylcarbamoylmethyl-2,3,4,5-tetrahydro-1H-benzo[d]azepin-7-ylamino)-pyrimidin-4-ylamino]-N-ethyl-3-fluoro-benzamide] was tested, and the IC50 [1, 5] was < 0.1 µM and the IC50 [2, 6] was < 0.1 µM.
In the case of `CNC(=O)c1ccccc1Nc1nc(Nc2ccc3c(c2)N(C)CCN(CCO)C3)ncc1Cl` [Example 485, 2-{5-Chloro-2-[4-(2-hydroxy-ethyl)-1-methyl-2,3,4,5-tetrahydro-1H-benzo[e][1,4]diazepin-8-ylamino]-pyrimidin-4-ylamino}-N-methyl-benzamide], the IC50 [1, 7] is reported as < 0.1 µM and the IC50 [2, 8] is reported as < 0.1 µM.
`COc1cc2c(cc1Nc1ncc(Cl)c(Nc3ccc(N4CCOCC4)cc3OC)n1)CCN(CCNC(C)=O)CC2` [Example 257, N-(2-{7-[5-Chloro-4-(2-methoxy-4-morpholin-4-yl-phenylamino)-pyrimidin-2-ylamino]-8-methoxy-1,2,4,5-tetrahydro-benzo[d]azepin-3-yl}-ethyl)-acetamide] was tested, and the IC50 [1, 7] was < 0.1 µM and the IC50 [2, 8] was > 10 µM.
In the case of `COCCNC1CCCc2c(ccc(Nc3ncc(Cl)c(Nc4ccccc4S(=O)(=O)N(C)C)n3)c2OC)C1` (stereo not shown) [Example 957, 2-{5-Chloro-2-[1-methoxy-6-(2-methoxy-ethylamino)-6,7,8,9-tetrahydro-5H-benzocyclohepten-2-ylamino]-pyrimidin-4-ylamino}-N,N-dimethyl-benzenesulfonamide], the IC50 [1, 9] is reported as < 0.1 µM and the IC50 [2, 10] is reported as > 10 µM.
`CS(=O)(=O)N[C@@H]1CCCC[C@H]1Nc1nc(Nc2ccc3c(c2)CN(CCO)CCS3)ncc1Cl` [Example 525, N-((1R,2R)-2-{-5-Chloro-2-[8-(2-hydroxy-ethyl)-6,7,8,9-tetrahydro-5-thia-8-azabenzo-cyclohepten-2-ylamino]-pyrimidin-4-ylamino}cyclohexyl)-methanesulfonamide] showed an IC50 [1, 9] of 0.1 to 1 µM and an IC50 [2, 10] of 1 to 10 µM.
In the case of “N-(2-{5-Chloro-2-[3-(2-methoxy-ethyl)-2,3,4,5-tetrahydro-1H-benzo[d]azepin-7-ylamino]-pyrimidin-4-ylamino}-phenyl)-methanesulfonamide [Example 37]”, the IC50 [1, 7] is reported as < 0.1 µM and the IC50 [2, 8] is reported as 1 to 10 µM.
With `CNC(=O)c1cc(OC)ccc1Nc1nc(Nc2cc3c(cc2OC)CCN(CC(=O)N(C)C)CC3)ncc1Cl` [Example 617, 2-[5-Chloro-2-(3-dimethylcarbamoylmethyl-8-methoxy-2,3,4,5-tetrahydro-1H-benzo[d]azepin-7-ylamino)-pyrimidin-4-ylamino]-5-methoxy-N-methyl-benzamide] the IC50 [1, 9] was < 0.1 µM and the IC50 [2, 10] was 1 to 10 µM.
In the case of `COCCN1CCc2ccc(Nc3ncc(Cl)c(Nc4c(F)cccc4OCCCOCc4ccccc4)n3)cc2CC1` [Example 1284, N(4)-[2-(3-Benzyloxy-propoxy)-6-fluoro-phenyl]-5-chloro-N(2)-[3-(2-methoxy-ethyl)-2,3,4,5-tetrahydro-1H-3-benzazepin-7-yl]-pyrimidine-2,4-diamine], the IC50 [1, 5] is reported as 0.1 to 1 µM and the IC50 [2, 6] is reported as 1 to 10 µM.
`CCN1CCc2ccc(Nc3ncc(Cl)c(Nc4ccccc4C(=O)NC)n3)c(OC)c2CC1` [Example 234, 2-[5-Chloro-2-(3-ethyl-6-methoxy-2,3,4,5-tetrahydro-1H-benzo[d]azepin-7-ylamino)-pyrimidin-4-ylamino]-N-methyl-benzamide] was tested, and the IC50 [1, 7] was < 0.1 µM and the IC50 [2, 8] was > 10 µM.
With `COc1cc2c(cc1Nc1ncc(Cl)c(Nc3ccccc3-n3cccn3)n1)CCN(CC(F)F)CC2` [Example 823, 5-Chloro-N*2*-[3-(2,2-difluoro-ethyl)-8-methoxy-2,3,4,5-tetrahydro-1H-benzo[d]azepin-7-yl]-N*4*-(2-pyrazol-1-yl-phenyl)-pyrimidine-2,4-diamine] the IC50 [1, 9] was < 0.1 µM and the IC50 [2, 10] was > 10 µM.
For `C#CCNC(=O)c1cccc(F)c1Nc1nc(Nc2ccc3c(c2)N(C(C)=O)CCCC3(C)C)ncc1Cl` [Example 1602, 2-[2-(1-Acetyl-5,5-dimethyl-2,3,4,5-tetrahydro-1H-benzo[b]azepin-8-ylamino)-5-chloro-pyrimidin-4-ylamino]-3-fluoro-N-prop-2-ynyl-benzamide], the IC50 [1, 3] was 0.1 to 1 µM and the IC50 [2, 4] was < 0.1 µM.
`COCCN1CCc2cc(Nc3ncc(Cl)c(Nc4ccccc4-c4ncccc4C)n3)c(OC)cc2CC1` [Example 987, 5-Chloro-N*2*-[8-methoxy-3-(2-methoxy-ethyl)-2,3,4,5-tetrahydro-1H-benzo[d]azepin-7-yl]-N*4*-[2-(3-methyl-pyridin-2-yl)-phenyl]-pyrimidine-2,4-diamine] was tested, and the IC50 [1, 9] was < 0.1 µM and the IC50 [2, 10] was > 10 µM.
Work on `CN(CCC#N)c1cccc(F)c1Nc1nc(Nc2ccc3c(c2)NC(=O)CCC3(C)C)ncc1Cl` [Example 1263, 3-({2-[5-Chloro-2-(5,5-dimethyl-2-oxo-2,3,4,5-tetrahydro-1H-1-benzazepin-8-ylamino)-pyrimidin-4-ylamino]-3-fluoro-phenyl}-methyl-amino)-propionitrile] yielded an IC50 [1, 5] of 0.1 to 1 µM and an IC50 [2, 6] of 1 to 10 µM.
With `CNC(=O)c1cccc(F)c1Nc1nc(Nc2ccc3c(c2)N(C(=O)CN2C(=O)c4ccccc4C2=O)CCCC3(C)C)ncc1Cl` [Example 1616, 2-(5-Chloro-2-{1-[2-(1,3-dioxo-1,3-dihydro-isoindol-2-yl)-acetyl]-5,5-dimethyl-2,3,4,5-tetrahydro-1H-benzo[b]azepin-8-ylamino}-pyrimidin-4-ylamino)-3-fluoro-N-methyl-benzamide] the IC50 [1, 3] was 0.1 to 1 µM and the IC50 [2, 4] was 0.1 to 1 µM.
In the case of `CN1C(=O)CCCc2ccc(Nc3ncc(Cl)c(N[C@@H]4CCCC[C@H]4NS(C)(=O)=O)n3)cc21` [Example 109, N-{(1R,2R)-2-[5-Chloro-2-(1-methyl-2-oxo-2,3,4,5-tetrahydro-1H-benzo[b]azepin-8-ylamino)-pyrimidin-4-ylamino]-cyclohexyl}-methanesulfonamide], the IC50 [1, 7] is reported as < 0.1 µM and the IC50 [2, 8] is reported as 1 to 10 µM.
`CNC(=O)[C@@H]1CCC[C@@H]1Nc1nc(Nc2ccc3c(c2)CCN(CCOC)CC3)ncc1Cl` (relative stereo) [Example 372, cis-2-{5-Chloro-2-[3-(2-methoxy-ethyl)-2,3,4,5-tetrahydro-1H-benzo[d]azepin-7-ylamino]-pyrimidin-4-ylamino}-cyclopentanecarboxylic acid methylamide] was tested, and the IC50 [1, 7] was < 0.1 µM and the IC50 [2, 8] was 0.1 to 1 µM.
`CCN1C2CCC1c1c(ccc(Nc3ncc(Cl)c(N[C@@H]4CCCC[C@H]4NS(C)(=O)=O)n3)c1OC)C2` (stereo partly drawn) [Example 93, N-{(1R,2R)-2-[5-Chloro-2-(12-ethyl-3-methoxy-12-aza-tricyclo[7.2.1.0*2,7*]dodeca-2(7),3,5-trien-4-ylamino)-pyrimidin-4-ylamino]-cyclohexyl}-methanesulfonamide] was tested, and the IC50 [1, 7] was > 10 µM and the IC50 [2, 8] was > 10 µM.
`CCCNC(=O)c1ccc(Nc2nc(Nc3ccc4c(c3)CCC(N3CCOCC3)CC4)ncc2Cl)c(OC)c1` (stereo not shown) [Example 929, 4-[5-Chloro-2-(7-morpholin-4-yl-6,7,8,9-tetrahydro-5H-benzocyclohepten-2-ylamino)-pyrimidin-4-ylamino]-3-methoxy-N-propyl-benzamide] was tested, and the IC50 [1, 9] was < 0.1 µM and the IC50 [2, 10] was > 10 µM.
For `COc1cc(N2CCOCC2)ccc1Nc1nc(Nc2ccc3c(c2)C2CCC3CN(C(=O)C(F)(F)F)C2)ncc1Cl` (stereo not shown) [Example 290, 2-{4-[5-Chloro-4-(2-methoxy-4-morpholin-4-yl-phenylamino)-pyrimidin-2-ylamino]-10-aza-tricyclo[6.3.2.0*2,7*]trideca-2,4,6-trien-10-yl}-2,2,2-trifluoro-ethanone], the IC50 [1, 7] was 0.1 to 1 µM and the IC50 [2, 8] was > 10 µM.
`COCCN1CCc2ccc(Nc3ncc(Cl)c(Oc4c(F)cccc4OC4CCOC4)n3)cc2CC1` (stereo not shown) [Example 1308, {5-Chloro-4-[2-fluoro-6-(tetrahydro-furan-3-yloxy)-phenoxy]-pyrimidin-2-yl}-[3-(2-methoxy-ethyl)-2,3,4,5-tetrahydro-1H-3-benzazepin-7-yl]-amine] was tested, and the IC50 [1, 5] was 0.1 to 1 µM and the IC50 [2, 6] was 1 to 10 µM.
`COc1cccc(C(=O)NCCC#N)c1Nc1nc(Nc2ccc3c(c2)C(C)(C)CCC(=O)N3)ncc1Cl` [Example 1061, 2-[5-Chloro-2-(5,5-dimethyl-2-oxo-2,3,4,5-tetrahydro-1H-benzo[b]azepin-7-ylamino)-pyrimidin-4-ylamino]-N-(2-cyano-ethyl)-3-methoxy-benzamide] was tested, and the IC50 [1, 5] was > 10 µM and the IC50 [2, 6] was 1 to 10 µM.
For `CNS(=O)(=O)c1ccccc1Nc1nc(Nc2ccc3c(c2)CCCC(=O)N3CC(=O)N2CCN(C)CC2)ncc1Cl` [Example 10, 2-(5-Chloro-2-{1-[2-(4-methyl-piperazin-1-yl)-2-oxo-ethyl]-2-oxo-2,3,4,5-tetrahydro-1H-benzo[b]azepin-7-ylamino}-pyrimidin-4-ylamino)-N-methyl-benzenesulfonamide], the IC50 [1, 7] was < 0.1 µM and the IC50 [2, 8] was < 0.1 µM.
